The values below come from patent US20220096450A1, “Compounds and Methods for Treating or Preventing Heart Failure” (DREXEL UNIVERSITY, priority 2019, published 2022).

Data set [1] can be described thus: Cell Counting Kit-8 cytotoxicity assay in H9C2 cells. The note with it: rat. The data set is classed as cell-based. On the procedure:
H9C2 cells, a rat ventricular cardiomyoblast cell line were obtained from ATCC (CRL-1446) and maintained in Dulbecco's modified Eagle's medium (DMEM) containing 10% FBS and 1× GlutaMAX. For hypertrophy studies, the cells were plated onto 4-well glass chamber slides precoated with poly-D-lysine. The maintenance medium was aspirated after 24 h and the cells were serum-starved overnight in DMEM containing 1% FBS and 1× GlutaMAX and then incubated for 48 h in fresh serum-starved medium containing isoproterenol, as indicated.
(§1) Cytotoxicity assays were conducted under the same conditions used for hypertrophy assays with NVCMs or H9C2 cells, as described elsewhere herein.
Background: Formazan colour is commonly taken as a measure of viable cells.

Data set [2] can be described thus: Cell Counting Kit-8 cytotoxicity assay in NVCMs. The format is cell-based. As to conditions: Sprague-Dawley, rat, rat neonatal ventricular cardiomyocytes (NVCMs).
Source text: (§2) Rat neonatal ventricular cardiomyocytes (NVCMs) were isolated from the hearts of 1-2 day old Sprague-Dawley rats (Charles River) in 50-90% yield (70-95% viability) by following the protocol described by Golden et al. (Golden et al., 2012, in Cardiovascular Development. Methods in Molecular Biology (Methods and Protocols), vol 843 (Peng, X., Antonyak, M., Eds.) pp 205-214, Springer, Totowa, N.J.).
NVCMs are maintained in Dulbecco's modified Eagle's medium (DMEM:F12) containing 20% fetal bovine serum (FBS), 5% horse serum, 1× GlutaMAX, and 2 μg/mL insulin. For hypertrophy studies, cells were plated onto 4-well glass chamber slides, precoated with poly-D-lysine and laminin. The maintenance medium was aspirated after incubation for 72 h. The cells were serum-starved overnight in DMEM:F12 containing 1% FBS, 1× GlutaMAX, and 2 ug/mL insulin and then incubated for 24 h in fresh serum-starved medium containing angiotensin II, as indicated.
as §1

The subject of data set [3] is mitochondrial CoQ-dependent respiratory complex I. Kind of data set: Biochemical selectivity assay, respiratory complex I. More on the design: species or system mouse. As to conditions: highest concentration tested 11 μM. Here is the method:
(§3) Inhibitor selectivity was assessed using mouse muscle homogenate preparations that contain disrupted mitochondrial membranes, a feature that makes substrates accessible to each of the membrane-bound respiratory complexes. Spectrophotometric assays for each complex are conducted in the presence or absence of a target-specific inhibitor (FIG. 9) to correct for nonspecific substrate oxidation, as previously described (Spinazzi et al., 2012, Nature Protocols 7: 1235-1246). Thus, the activity of complex I is determined by monitoring the oxidation of NADH in the absence or presence of rotenone. Complex III activity is measured based on the rate of cytochrome C reduction observed in the presence or absence of antimycin A. The reaction catalyzed by complex II produces decylubiquinol (decylCoQH2), which rapidly reduces DCIP.

The target of data set [4] is T1, mitochondrial CoQ-dependent respiratory complex II (Mus musculus, UniProt Q8K2B3+Q9CQA3+Q9CXV1+Q9CZB0).
T1 construct: mouse muscle homogenate preparations that contain disrupted mitochondrial membranes; from tissue; host or cells: mouse muscle homogenate
T1 sequence (Q8K2B3 43-664): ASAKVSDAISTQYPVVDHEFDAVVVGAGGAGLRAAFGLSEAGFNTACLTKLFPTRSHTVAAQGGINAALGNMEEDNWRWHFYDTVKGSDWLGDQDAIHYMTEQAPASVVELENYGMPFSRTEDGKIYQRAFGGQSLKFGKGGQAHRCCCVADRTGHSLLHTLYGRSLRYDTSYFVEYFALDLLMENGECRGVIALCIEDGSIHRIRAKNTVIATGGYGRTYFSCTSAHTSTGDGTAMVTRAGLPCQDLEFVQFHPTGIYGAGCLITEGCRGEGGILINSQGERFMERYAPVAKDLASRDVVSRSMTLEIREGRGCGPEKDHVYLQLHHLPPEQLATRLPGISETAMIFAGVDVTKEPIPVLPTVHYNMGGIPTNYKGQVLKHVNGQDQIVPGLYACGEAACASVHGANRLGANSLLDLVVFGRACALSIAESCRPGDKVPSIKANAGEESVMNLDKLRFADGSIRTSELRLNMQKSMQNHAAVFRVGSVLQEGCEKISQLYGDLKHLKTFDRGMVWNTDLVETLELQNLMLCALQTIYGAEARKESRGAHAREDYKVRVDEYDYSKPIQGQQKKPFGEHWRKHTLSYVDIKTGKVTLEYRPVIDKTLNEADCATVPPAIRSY
T1 sequence (Q9CQA3 31-282): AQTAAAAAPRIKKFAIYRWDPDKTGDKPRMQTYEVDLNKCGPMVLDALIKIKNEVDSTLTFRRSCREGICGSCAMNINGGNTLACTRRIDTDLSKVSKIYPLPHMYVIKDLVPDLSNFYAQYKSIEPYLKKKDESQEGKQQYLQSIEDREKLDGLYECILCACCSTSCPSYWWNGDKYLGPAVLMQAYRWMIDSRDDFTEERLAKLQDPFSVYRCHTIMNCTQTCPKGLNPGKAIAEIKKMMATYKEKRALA
T1 sequence (Q9CZB0 30-169): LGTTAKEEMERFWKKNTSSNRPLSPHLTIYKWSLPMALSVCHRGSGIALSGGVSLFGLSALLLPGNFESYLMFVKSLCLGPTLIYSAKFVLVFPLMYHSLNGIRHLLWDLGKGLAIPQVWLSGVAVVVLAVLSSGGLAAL
T1 sequence (Q9CXV1 57-159): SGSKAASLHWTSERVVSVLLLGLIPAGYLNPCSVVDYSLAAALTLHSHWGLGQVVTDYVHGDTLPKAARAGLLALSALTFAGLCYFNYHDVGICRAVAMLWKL
Kind of data set: Biochemical selectivity assay, respiratory complex II. As to conditions: highest concentration tested 11 μM. On the procedure: as §3, with “DCIP. The activity of […] is determined by monitoring DCIP reduction in the presence and absence of 2-thenoyltrifluoroacetone (TTFA).” for “DCIP.”

Data set [5] has as its system mitochondrial CoQ-dependent respiratory complex III. Kind of data set: Biochemical selectivity assay, respiratory complex III. Further details: species or system mouse. As to conditions: highest concentration tested 11 μM. On the procedure:
as §3

The test system of data set [6] is rat neonatal ventricular cardiomyocytes (NVCMs). Kind of data set: Angiotensin II-induced hypertrophy assay in NVCMs. As to conditions: 200 nM Ang II 24 h; 10 μM FC9402. The data set is classed as cell-based.
Source text: as §2
NVCMs are maintained in Dulbecco's modified Eagle's medium (DMEM:F12) containing 20% fetal bovine serum (FBS), 5% horse serum, 1× GlutaMAX, and 2 μg/mL insulin. For hypertrophy studies, cells were plated onto 4-well glass chamber slides, precoated with poly-D-lysine and laminin. The maintenance medium was aspirated after incubation for 72 h. The cells were serum-starved overnight in DMEM:F12 containing 1% FBS, 1× GlutaMAX, and 2 ug/mL insulin and then incubated for 24 h in fresh serum-starved medium containing angiotensin II, as indicated. […]

For `COc1nc(-c2ncccc2C)cc(-c2ccc(N)cc2)c1C#N` [FC9402, 4-(4-aminophenyl)-2-methoxy-6-(3-methylpyridin-2-yl)pyridine-3-carbonitrile], in data set [1], it took 56 ± 10 µM to reach half-maximal cytotoxicity (CC50 at 48 h). The compound further gave a CC50 at 24 h in data set [2] of 27.9 ± 2.6 µM. Moreover, in data set [3], the “inhibition of respiratory complex I” value is on record as “did not inhibit”. In data set [4], the “inhibition of respiratory complex II” value is reported as “did not inhibit”. The “inhibition of respiratory complex III” value in data set [5] was “did not inhibit”. In data set [6], the “angiotensin II-induced hypertrophy (cell surface area)” value is on record as “prevents angiotensin II-induced hypertrophy”.

One may read the CC50 as the concentration giving 50% cytotoxicity. Read a high CC50 as lower toxicity to the cells.
